Reference: patent US8372967B2, “Compounds and methods for modulating expression of GCCR” (Isis Pharmaceuticals, Inc., priority 2006, dated 2013)
Strand notation (5' to 3'): a small letter for the sugar, then the base; units joined by * are phosphorothioate-linked, units joined directly phosphodiester-linked; [ ] holds rarer units or linkages, { } end groups; capitals alone tell only the bases. e = 2'-O-(2-methoxyethyl) (MOE); [5mC] = 5-methylcytosine; d = 2'-deoxy (DNA)

Test system: PCSK9 mRNA
Assay: not given
Format: cell-based, human
Conditions: Hep3B cells, 100 nM, relative to untreated control cells
Experimental: When cells reached appropriate confluency, they were treated with oligonucleotide using LIPOFECTIN® as described. […] Cells were treated and data were obtained in duplicate or triplicate. […] Cells were harvested 16-24 hours after oligonucleotide treatment.
Prior to quantitative PCR analysis, primer-probe sets specific to the target gene being measured were evaluated for their ability to be “multiplexed” with a GAPDH amplification reaction. After isolation the RNA is subjected to sequential reverse transcriptase (RT) reaction and real-time PCR, both of which are performed in the same well. RT and PCR reagents were obtained from Invitrogen Life Technologies (Carlsbad, Calif.). […] The RT reaction was carried out by incubation for 30 minutes at 48° C. Following a 10 minute incubation at 95° C. to activate the PLATIN 9M® Taq, 40 cycles of a two-step PCR protocol were carried out: 95° C. for 15 seconds (denaturation) followed by 60° C. for 1.5 minutes (annealing/extension).
170 μL of RiboGreen® working reagent (RiboGreen® reagent diluted 1:350 in 10 mM Tris-HCl, 1 mM EDTA, pH 7.5) was pipetted into a 96-well plate containing 30 μL purified cellular RNA. The plate was read in a CytoFluor® 4000 (PE Applied Biosystems) with excitation at 485 nm and emission at 530 nm.
Short antisense compounds targeted to a PCSK9 nucleic acid were tested for their effects on PCSK9 mRNA in vitro. The Isis No, gapmer motif and SEQ ID NO of each short antisense compound are shown again in Table 75. Cultured Hep3B cells were treated with 100 nM of short antisense compound. 5-10-5 MOE gapmers targeted to a PCSK9 nucleic acid were used as positive controls. After the treatment period, RNA was isolated from the cells and PCSK9 mRNA levels were measured by quantitative real-time PCR, as described herein. PCSK9 mRNA levels were adjusted according to total RNA content as measured by RIBOGREEN®. Results are presented in Table 75 as percent inhibition of PCSK9 (% Inhib), relative to untreated control cells.

Substance	% Inhibition Range
400301 (antisense e[5mC]*eG*d[5mC]*dT*d[5mC]*d[5mC]*dA*dG*dG*dT*dT*d[5mC]*e[5mC]*eA) [compound 400301]	20-30%
400304 (antisense eG*eA*dG*dA*dT*dA*d[5mC]*dA*d[5mC]*d[5mC]*dT*d[5mC]*e[5mC]*eA) [compound 400304]	10-20%
400305 (antisense eG*e[5mC]*d[5mC]*dT*dG*dT*d[5mC]*dT*dG*dT*dG*dG*eA*eA) [compound 400305]	30-40%
400306 (antisense e[5mC]*eT*dG*dT*d[5mC]*dA*d[5mC]*dA*d[5mC]*dT*dT*dG*e[5mC]*eT) [compound 400306]	40-50%
400311 (antisense eA*eT*d[5mC]*d[5mC]*d[5mC]*dG*dG*d[5mC]*d[5mC]*dG*d[5mC]*dT*eG*eA) [compound 400311]	10-20%
400312 (antisense e[5mC]*eA*dT*d[5mC]*d[5mC]*d[5mC]*dG*dG*d[5mC]*d[5mC]*dG*d[5mC]*eT*eG) [compound 400312]	20-30%
400313 (antisense eG*e[5mC]*dA*dT*d[5mC]*d[5mC]*d[5mC]*dG*dG*d[5mC]*d[5mC]*dG*e[5mC]*eT) [compound 400313]	10-20%
400314 (antisense eG*eT*dG*d[5mC]*d[5mC]*d[5mC]*dT*dT*d[5mC]*d[5mC]*d[5mC]*dT*eT*eG) [compound 400314]	20-30%

Same assay, conditions: Hep3B cells, 100 nM, relative to untreated control cells, 0 = no reduction observed

Substance	% Inhib [%]
400297 (antisense eA*eT*dG*dG*dG*dG*d[5mC]*dA*dA*d[5mC]*dT*dT*e[5mC]*eA) [compound 400297]	0
400298 (antisense e[5mC]*eA*dT*dG*dG*dG*dG*d[5mC]*dA*dA*d[5mC]*dT*eT*e[5mC]) [compound 400298]	0
400299 (antisense eA*e[5mC]*dA*dT*dG*dG*dG*dG*d[5mC]*dA*dA*d[5mC]*eT*eT) [compound 400299]	0
400300 (antisense eG*eG*dG*dA*dT*dG*d[5mC]*dT*d[5mC]*dT*dG*dG*eG*e[5mC]) [compound 400300]	9
400301 (antisense e[5mC]*eG*d[5mC]*dT*d[5mC]*d[5mC]*dA*dG*dG*dT*dT*d[5mC]*e[5mC]*eA) [compound 400301]	27
400302 (antisense eG*eA*dT*dA*d[5mC]*dA*d[5mC]*d[5mC]*dT*d[5mC]*d[5mC]*dA*e[5mC]*e[5mC]) [compound 400302]	0
400303 (antisense eA*eG*dA*dT*dA*d[5mC]*dA*d[5mC]*d[5mC]*dT*d[5mC]*d[5mC]*eA*e[5mC]) [compound 400303]	0
400304 (antisense eG*eA*dG*dA*dT*dA*d[5mC]*dA*d[5mC]*d[5mC]*dT*d[5mC]*e[5mC]*eA) [compound 400304]	11
400305 (antisense eG*e[5mC]*d[5mC]*dT*dG*dT*d[5mC]*dT*dG*dT*dG*dG*eA*eA) [compound 400305]	38
400306 (antisense e[5mC]*eT*dG*dT*d[5mC]*dA*d[5mC]*dA*d[5mC]*dT*dT*dG*e[5mC]*eT) [compound 400306]	40
400310 (antisense eT*e[5mC]*d[5mC]*d[5mC]*dG*dG*d[5mC]*d[5mC]*dG*d[5mC]*dT*dG*eA*e[5mC]) [compound 400310]	8
400311 (antisense eA*eT*d[5mC]*d[5mC]*d[5mC]*dG*dG*d[5mC]*d[5mC]*dG*d[5mC]*dT*eG*eA) [compound 400311]	18
400312 (antisense e[5mC]*eA*dT*d[5mC]*d[5mC]*d[5mC]*dG*dG*d[5mC]*d[5mC]*dG*d[5mC]*eT*eG) [compound 400312]	28
400313 (antisense eG*e[5mC]*dA*dT*d[5mC]*d[5mC]*d[5mC]*dG*dG*d[5mC]*d[5mC]*dG*e[5mC]*eT) [compound 400313]	10
400314 (antisense eG*eT*dG*d[5mC]*d[5mC]*d[5mC]*dT*dT*d[5mC]*d[5mC]*d[5mC]*dT*eT*eG) [compound 400314]	26
400315 (antisense eA*eT*dG*dA*dG*dG*dG*dT*dG*d[5mC]*d[5mC]*dG*e[5mC]*eT) [compound 400315]	0
400316 (antisense eT*eA*dT*dG*dA*dG*dG*dG*dT*dG*d[5mC]*d[5mC]*eG*e[5mC]) [compound 400316]	8
400317 (antisense e[5mC]*eT*dA*dT*dG*dA*dG*dG*dG*dT*dG*d[5mC]*e[5mC]*eG) [compound 400317]	7

Test system: rat DGAT2 mRNA
Assay: Dose-dependent inhibition of DGAT2 in A10 cells (Tables 82, 83)
Format: cell-based
Conditions: 6.25 nM (Table 82)
Experimental: Additional short antisense compounds targeted to DGAT2 mRNA were tested in vitro in a dose-response experiment. A10 cells were prepared as described above and treated with 6.25, 12.5, 25.0, 50.0, 100.0, and 200.0 nM short antisense compounds to determine if DGAT2 inhibition occurs in a dose-dependent manner. […] Results are presented as percent inhibition, relative to untreated control cells.
Additional short antisense compounds targeted to DGAT2 mRNA were tested in vitro. A10 cells were prepared as described above and treated with 0.62, 1.85, 5.56, 16.67, 50.0, and 150.0 nM short antisense compounds to determine if DGAT2 inhibition occurs in a dose-dependent manner. DGAT2 mRNA was measured using quantitative real-time PCR, as described herein. […] Results are presented as percent inhibition of rat DGAT2, relative to untreated control cells.

Substance	percent inhibition of DGAT2 [%]
372562 (antisense eG*eT*d[5mC]*dT*dT*dG*dG*dA*dG*dG*dG*d[5mC]*e[5mC]*eG) [compound 372562]	0
372568 (antisense eG*eA*d[5mC]*dA*d[5mC]*dT*dG*d[5mC]*dA*dG*dG*d[5mC]*e[5mC]*eA) [compound 372568]	0

Same assay, conditions: 12.5 nM (Table 82)

Substance	percent inhibition of DGAT2 [%]
372562 (antisense eG*eT*d[5mC]*dT*dT*dG*dG*dA*dG*dG*dG*d[5mC]*e[5mC]*eG) [compound 372562]	0
372568 (antisense eG*eA*d[5mC]*dA*d[5mC]*dT*dG*d[5mC]*dA*dG*dG*d[5mC]*e[5mC]*eA) [compound 372568]	0

Same assay, conditions: 50.0 nM (Table 82)

Substance	percent inhibition of DGAT2 [%]
372562 (antisense eG*eT*d[5mC]*dT*dT*dG*dG*dA*dG*dG*dG*d[5mC]*e[5mC]*eG) [compound 372562]	36
372568 (antisense eG*eA*d[5mC]*dA*d[5mC]*dT*dG*d[5mC]*dA*dG*dG*d[5mC]*e[5mC]*eA) [compound 372568]	26

Same assay, conditions: 100.0 nM (Table 82)

Substance	percent inhibition of DGAT2 [%]
372562 (antisense eG*eT*d[5mC]*dT*dT*dG*dG*dA*dG*dG*dG*d[5mC]*e[5mC]*eG) [compound 372562]	48
372568 (antisense eG*eA*d[5mC]*dA*d[5mC]*dT*dG*d[5mC]*dA*dG*dG*d[5mC]*e[5mC]*eA) [compound 372568]	72

Same assay, conditions: 200.0 nM (Table 82)

Substance	percent inhibition of DGAT2 [%]
372562 (antisense eG*eT*d[5mC]*dT*dT*dG*dG*dA*dG*dG*dG*d[5mC]*e[5mC]*eG) [compound 372562]	75
372568 (antisense eG*eA*d[5mC]*dA*d[5mC]*dT*dG*d[5mC]*dA*dG*dG*d[5mC]*e[5mC]*eA) [compound 372568]	69
